Experimental findings from patent US20040053355A1, “Modular approach to on-line synthesis, drug discovery and biochemical transformations using immobilized enzyme reactors” (priority 2000, published 2004) are described below.

Series [1] deals with T1, DBH-Glut-P IMER (immobilized dopamine beta-hydroxylase) (Bos taurus, UniProt P15101).
T1 construct: purchased
T1 sequence (P15101 1-610): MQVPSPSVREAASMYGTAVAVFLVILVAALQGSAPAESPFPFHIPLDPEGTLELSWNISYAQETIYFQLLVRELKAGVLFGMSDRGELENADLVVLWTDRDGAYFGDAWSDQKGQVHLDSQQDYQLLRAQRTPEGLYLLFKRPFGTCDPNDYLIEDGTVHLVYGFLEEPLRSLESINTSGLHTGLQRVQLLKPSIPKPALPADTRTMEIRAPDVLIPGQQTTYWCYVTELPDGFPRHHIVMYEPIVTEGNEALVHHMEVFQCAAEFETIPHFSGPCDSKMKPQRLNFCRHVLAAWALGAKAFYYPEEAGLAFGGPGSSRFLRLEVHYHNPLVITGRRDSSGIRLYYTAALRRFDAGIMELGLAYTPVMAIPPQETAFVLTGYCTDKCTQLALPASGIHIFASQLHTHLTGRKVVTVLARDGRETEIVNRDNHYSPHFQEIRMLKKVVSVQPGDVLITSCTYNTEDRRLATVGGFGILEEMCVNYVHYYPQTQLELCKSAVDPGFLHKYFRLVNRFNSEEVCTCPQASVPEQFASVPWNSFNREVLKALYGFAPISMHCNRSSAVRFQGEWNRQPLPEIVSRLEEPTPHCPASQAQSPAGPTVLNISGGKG
As to the kind of experiment: On-line DBH-Glut-P immobilized enzyme reactor (DBH-Glut-P IMER) HPLC system. The series is classed as biochemical, bovine. The source says: DBH immobilized on the IAM or Glut-P stationary phase was packed into a 1 cm×10 mm guard (Regis Technologies). The guard was placed in a holder and the resulting column connected to a chromatographic system. THE DBH-IAM-IMER and the DBH-Glut-P-IMER was washed with sodium acetate buffer [0.1M, pH 5.5] and sodium acetate buffer [0.1M, pH 6.0], respectively. The eluent from both IMERs was collected in order to determine if any of the DBH was being washed off the columns. The Biorad assay was utilized to measure the amount of non-immobilized enzyme. When the columns were not in use they were washed with sodium acetate buffer at the respective pHs and stored at 4° C.
Pumps 2 and 3 on system 2 and 3 were stopped. 100 μl of a substrate/cofactor mixture is loaded into the injector (i) and the valve is switched to the inject position at the same time the witching valve (SV) is switched such that substrate/product are eluted from the DBH-IMERs and concentrated onto the PBA column of system 2.The second pump was started and mobile phase A was pumped through the PBA column at a flow rate of 0.1 ml/min for 30 sec in order to elute, ascorbic acid and any other by-products produced from the reaction. The pump was then switched to mobile phase B with a flow rate of 0.1 ml/min for 2 min and simultaneously SV1 was switched such that unreacted substrate and product formed were concentrated on the analytical columns of System 3. When the specific contact time elapses the SV2 is switched back to the original position and the pump 3 is started.
The enzymatic activity on the DBH-Glut-P was determined by quantification of the amount of product formed with a given substrate. The temperature of the IMER unless otherwise stated was kept at 37° C. with a column heater. Stock solutions of tyramine were prepared in water. […] The kinetic parameters were determined using standard Michaelis-Menten approach. […] The rates of reaction (Vmax) were calculated using […]mol/mg/min. Results are expressed as mean±standard error of the mean (SEM). […]

Series [2] addresses T2, dopamine beta-hydroxylase immobilized onto IAM (DBH-IAM) (Bos taurus, UniProt P15101).
T2 construct: purchased
T2 sequence (P15101 1-610): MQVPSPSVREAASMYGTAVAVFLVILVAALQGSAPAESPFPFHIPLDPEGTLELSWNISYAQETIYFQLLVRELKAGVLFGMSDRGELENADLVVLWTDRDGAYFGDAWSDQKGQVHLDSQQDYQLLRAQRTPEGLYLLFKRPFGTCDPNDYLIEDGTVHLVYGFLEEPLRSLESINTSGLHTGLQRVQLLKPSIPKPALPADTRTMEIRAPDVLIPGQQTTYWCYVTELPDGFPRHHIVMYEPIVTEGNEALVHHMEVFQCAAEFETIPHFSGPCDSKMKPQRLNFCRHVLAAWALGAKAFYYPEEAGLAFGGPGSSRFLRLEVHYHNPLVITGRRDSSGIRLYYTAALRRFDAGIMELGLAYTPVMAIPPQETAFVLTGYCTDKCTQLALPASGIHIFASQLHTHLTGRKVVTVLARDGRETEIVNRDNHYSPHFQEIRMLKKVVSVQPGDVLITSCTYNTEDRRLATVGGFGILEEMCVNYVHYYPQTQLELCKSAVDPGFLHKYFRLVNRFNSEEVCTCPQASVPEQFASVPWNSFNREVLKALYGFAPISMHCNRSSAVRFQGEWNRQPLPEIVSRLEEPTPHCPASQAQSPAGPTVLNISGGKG
The experiment in a line: DBH immobilized onto IAM stationary phase (DBH-IAM), batch assay. The class given is biochemical, bovine. The method, then: (§1) The enzyme was assayed as follows: four different solutions were prepared A, B, C and D (final concentration). (A) 500 μL of enzyme solution (10 μg/ml); B: 275 μL sodium acetate buffer (10 mM, pH 5.5), 50 μL cupric sulphate (5 μM); C: 25 μL catalase (5 μg/ml), 50 μL ascorbic acid (10 mM), 50 μl sodium fumarate (10 mM); D: 50 μl substrate (5 mM). Solution B was added to solution A, the resulting solution was mixed for 1 min. Solution C was added and the resulting solution was mixed for an additional minute. The reaction was started with the addition of the substrate (D), after which the reaction solution was incubated for 5 min at 37° C. in a shaking bath. The reaction was stopped by the addition of 100 μl of cold hexane, the resulting mixture was centrifuged at 3000×g for 10 min and the supernatant transferred to the pre-conditioned phenylboronic acid cartridges in order to extract the product formed and the remaining substrate. Extracted samples were directly injected onto the HPLC under either chiral or achiral conditions.
The packing material was washed three times with sodium acetate buffer (0.1M, pH 5.5). The washing was carried out by adding 1 ml of buffer to the packing material, the suspension was vortexed for 1 min, centrifuged at 3000×g for 10 min and the supernatant decanted. The enzyme solution (8-10 μg in 1 ml sodium acetate buffer) was added to the packing material, the mixture was vortexed for 15 min and then placed in a shaking bath for 2 h at ambient temperature. At the end of 2 h, the suspension was centrifuged, the supernatant decanted and the packing material washed three additional times with buffer. The amount of enzyme immobilized on the packing material was determined by measuring the amount of residual enzyme in the supernatant using the BioRad Protein Assay. The difference in the absorbance reading before immobilization and the total of absorbances after immobilization determined the amount of enzyme bound on the packing material.

The target in series [3] is T3, dopamine beta-hydroxylase (DBH), non-immobilized (Bos taurus, UniProt P15101).
T3 construct: purchased
T3 sequence (P15101 1-610): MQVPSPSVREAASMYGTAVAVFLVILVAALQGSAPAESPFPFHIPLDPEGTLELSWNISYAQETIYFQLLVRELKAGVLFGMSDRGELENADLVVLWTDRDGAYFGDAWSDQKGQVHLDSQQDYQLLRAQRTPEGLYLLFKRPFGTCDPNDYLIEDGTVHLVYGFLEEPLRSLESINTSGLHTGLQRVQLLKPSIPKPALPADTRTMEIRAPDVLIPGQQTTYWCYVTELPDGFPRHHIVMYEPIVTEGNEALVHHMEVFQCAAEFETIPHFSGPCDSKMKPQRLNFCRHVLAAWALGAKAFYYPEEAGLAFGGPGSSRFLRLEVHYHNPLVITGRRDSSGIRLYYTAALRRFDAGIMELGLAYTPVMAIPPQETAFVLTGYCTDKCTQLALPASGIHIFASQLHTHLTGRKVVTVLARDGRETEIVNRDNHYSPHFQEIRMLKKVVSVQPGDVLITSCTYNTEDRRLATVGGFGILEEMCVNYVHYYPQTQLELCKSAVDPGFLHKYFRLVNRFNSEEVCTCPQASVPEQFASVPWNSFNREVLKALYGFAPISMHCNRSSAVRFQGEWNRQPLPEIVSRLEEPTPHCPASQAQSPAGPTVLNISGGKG
The experiment in a line: Non-immobilized DBH activity assay, batch incubation with HPLC-fluorescence analysis. The series is classed as biochemical, bovine. The procedure:
The solutes were quantitated using fluorescence detection with excitation at λ=265 nm and no cut-off filter for emission. A flow rate of 1 ml/min and ambient temperature were used throughout the study.
Enzymatic conversions utilizing DBH require cupric sulphate, catalase, ascorbic acid and sodium fumarate. An off-line extraction method utilizing solid phase extraction cartridges containing a phenylboronic acid stationary phase was developed. The procedure consisted of the following: 1-ml cartridges were conditioned with 2 ml of methanol followed by 2 ml of sodium phosphate buffer (0.1M, pH 8.4). One ml of reaction mixture was added, the cartridge was then washed with 1 ml sodium phosphate buffer (0.1M, pH 8.4) and the substrate and product were eluted using 1 ml of 0.1N HCl. The eluate was directly injected onto the HPLC system.
as §1

Substrate in series [4]: NCCc1ccc(O)cc1
As to the kind of experiment: DBH immobilized onto IAM stationary phase (DBH-IAM), batch assay. The series is classed as biochemical, bovine. The conditions noted are these: other: DBH-IAM; pH 5.5; 37.0 °C.

Substrate in series [5]: NCCc1ccc(O)c(O)c1
The experiment in a line: purified protein, by the assay type. The conditions noted are these: other: DBH-IAM; pH 5.5; 37.0 °C.

Setting [6] is: read-out: % Control Activity DBH-IAM.
[7] abbreviates: read-out: % Control Activity DBH.

The term IC50 denotes the concentration needed to halve the response being measured. A high value points to weaker potency. The Km is the substrate concentration at which the rate is half of its maximum. As usually defined, the Vmax is the rate approached at saturating substrate.

In turn, `CCCCc1ccc(C(=O)O)nc1` [Fusaric acid, fusaric acid] displayed an IC50 in series [1] of 5.6 nM. Also, the “inhibition of DBH mediated formation of norepinephrine from dopamine” value in series [2] (immobilized enzyme (DBH-IAM), concentrations as low as 10^−6M) was “approximately 50%”. Moreover, in series [2] (setting [6]), the remaining activity at 0.0016 µM worked out at 91%, the remaining activity at 0.0032 µM was found to be 73%, the remaining activity at 0.0063 µM came out at 56% and the remaining activity at 0.0125 µM came to 51%. Also, in series [2] (setting [6]), the remaining activity at 0.025 µM worked out at 46%, the remaining activity at 0.05 µM stood at 20%, the remaining activity at 0.1 µM came out at 0% and the remaining activity at 0.2 µM was determined as 0%. Besides, in series [3], the IC50 came to 7.5 nM. The “inhibition of DBH mediated formation of norepinephrine from dopamine” value in series [3] (non-immobilized enzyme, concentrations as low as 10^−6M) is on record as “approximately 50%”. In series [3] (setting [7]), the remaining activity at 0.0016 µM was 99%, the remaining activity at 0.0032 µM turned out to be 84%, the remaining activity at 0.0063 µM was 40% and the remaining activity at 0.0125 µM was 21%. In series [3] (setting [7]), the remaining activity at 0.025 µM was determined as 19%, the remaining activity at 0.05 µM amounted to 17%, the remaining activity at 0.1 µM amounted to 0% and the remaining activity at 0.2 µM amounted to 0%.

B1: dopamine beta-hydroxylase immobilized onto IAM (DBH-IAM) (Bos taurus) (protein)
chain: MQVPSPSVREAASMYGTAVAVFLVILVAALQGSAPAESPFPFHIPLDPEGTLELSWNISYAQETIYFQLLVRELKAGVLFGMSDRGELENADLVVLWTDRDGAYFGDAWSDQKGQVHLDSQQDYQLLRAQRTPEGLYLLFKRPFGTCDPNDYLIEDGTVHLVYGFLEEPLRSLESINTSGLHTGLQRVQLLKPSIPKPALPADTRTMEIRAPDVLIPGQQTTYWCYVTELPDGFPRHHIVMYEPIVTEGNEALVHHMEVFQCAAEFETIPHFSGPCDSKMKPQRLNFCRHVLAAWALGAKAFYYPEEAGLAFGGPGSSRFLRLEVHYHNPLVITGRRDSSGIRLYYTAALRRFDAGIMELGLAYTPVMAIPPQETAFVLTGYCTDKCTQLALPASGIHIFASQLHTHLTGRKVVTVLARDGRETEIVNRDNHYSPHFQEIRMLKKVVSVQPGDVLITSCTYNTEDRRLATVGGFGILEEMCVNYVHYYPQTQLELCKSAVDPGFLHKYFRLVNRFNSEEVCTCPQASVPEQFASVPWNSFNREVLKALYGFAPISMHCNRSSAVRFQGEWNRQPLPEIVSRLEEPTPHCPASQAQSPAGPTVLNISGGKG
notes: purchased
On to B1, for which, in series [4], the Km was determined as 1640 µM and the Vmax stood at 0.101 µmol/mg/min. In addition, in series [5], the Km turned out to be 2530 µM and the Vmax came to 0.160 µmol/mg/min.
